These results are taken from patent US20260083750A1, “SMALL MOLECULE INHIBITORS OF KRAS PROTEINS” (MERCK SHARP & DOHME LLC, priority 2022, published 2026).

Experiment [1] relates to PANC08.13 cells (homozygous KRAS-G12D activating mutation). The experiment in a line: Cellular phospho-ERK assay in G12D cell line. Format: cell-based. Particulars: Homo sapiens, PANC-08-13, 2 hours compound incubation, ratio of p-ERK vs. total ERK, read-out: PANC 0813 pERK IC50. The gist of the method: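 Cells (10,000-15,000/well) were seeded overnight, then treated for 2 h at 37 °C with a 10-point 1:3 titration from 30 μM final. Lysates were assayed by AlphaLISA SureFire Ultra multiplex, with the p-ERK/total-ERK ratio as read-out; IC50 came from a 4-parameter logistic fit.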

For another experiment, the target named is HRAS (Homo sapiens, UniProt P01112). Kind of experiment: SOS-catalyzed nucleotide exchange assay (Procedure A, TR-FRET). The following applies: 60 min preincubation, SOS + GTP, read-out: HRAS GNE IC50. The experiment is classed as biochemical. From the text:
(§1) Procedure for SOS-Catalyzed Nucleotide Exchange Assay for KRAS-G12C/D/V, G13D, HRAS, and NRAS (Procedure A)
(§2) Recombinant KRAS-G12C protein used in this assay has an additional triple mutation (C51S/C80L/C118S), whereas KRAS-G12D/V, G13D, HRAS and NRAS are in context of their WT protein sequence background. Specifically, the SOS-catalyzed nucleotide exchange assay utilizes a preformed TR-FRET complex containing a specific biotinylated RAS protein (KRAS-G12C/V/D, G13D, HRAS, NRAS; described above) with Bodipy-GDP, and Terbium-streptavidin. Compounds are preincubated with this complex for 60 minutes. Subsequently, recombinant human SOS protein and unlabeled GTP are added to initiate the exchange reaction. Small molecule inhibitors stabilize the Bodipy-GDP complex whereas the untreated protein rapidly exchanges Bodipy-GDP for unlabeled GTP resulting in reduced TR-FRET signal.
(§3) To assemble the preformed TR-FRET complexes, each biotinylated RAS protein is diluted to 2 μM in an EDTA Buffer (20 mM HEPES pH 7.5, 50 mM sodium chloride, 10 mM EDTA, and 0.01% Tween) and incubated at room temperature for one hour. This mixture is then further diluted to 90 nM in an Assay Buffer (20 mM HEPES pH 7.5, 150 mM sodium chloride, 10 mM magnesium chloride, and 0.005% Tween) containing 15 nM of Terbium-Streptavidin (Invitrogen, catalog #PV3577) and 900 nM of Bodipy-GDP (Invitrogen, catalog #G22360) and incubated at room temperature for six hours. It should be noted that this preformed TR-FRET complex for each of the RAS protein were made ahead of time, aliquoted and stored at −80° C. until the day of the experiment.
(§4) Each test compound (10 mM stock in DMSO) is diluted in DMSO to make a final-10-point, 3-fold dilution and is acoustically dispensed into a 384-well assay plate (Corning, catalog #3820) using an Echo 550 (Labcyte). Each well of the assay plate receives 3 μL of a specific 3× RAS preformed TR-FRET complex and 3 μL of Assay Buffer and is incubated at room temperature for 60 minutes (preincubation time). Each well then receives 3 μL of 3× recombinant human SOS protein and GTP (Sigma, G8877) in Assay Buffer and is incubated at room temperature for 30 minutes (G13D), 60 minutes (G12C/D, H/NRAS) or 90 minutes for G12V. The final reaction in each well of […] consists of 3 mM GTP, specific Ras and SOS proteins in the following concentrations: KRAS-G12C/SOS=3 nM/40 nM, KRAS-G12D/SOS=1 nM/40 nM, KRAS-G12V/SOS=1.25 nM/160 nM, KRAS-G13D/SOS=1.25 nM/0 nM, HRAS & NRAS=1.25 nM/40 nM.
(§5) The time-resolved fluorescence resonance energy transfer (TR-FRET) signal is measured on an Envision (PerkinElmer) plate reader: Excitation filter=340 nm; emission1=495 nm; emission2=520 nm; dichroic mirror=D400/D505; delay time=[…]. The signal of each well is determined as the ratio of the emission at 520 nm to that at 495 nm. Percent effect of each well is determined after normalization to control wells containing DMSO (no effect) or a saturating concentration of inhibitor (max effect). The apparent effect as a function of compound concentration is fit to a four-parameter logistic equation.

A further experiment addresses NRAS (Homo sapiens, UniProt P01111). Described as above. The experiment is classed as biochemical. Particulars: 60 min preincubation, SOS + GTP, read-out: NRAS GNE IC50.
Text: as §1, §2, §3, §4, §5

Another experiment has as its target T1, KRAS-G12D (Homo sapiens, UniProt P01116, G12D).
T1 construct: N-terminal biotin-acceptor peptide […]
Described as above. The experiment is classed as biochemical. The following applies: 60 min preincubation, SOS + GTP, read-out: KRAS G12D GNE IC50. Summed up:
(§6)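 Preformed biotinylated RAS–Bodipy-GDP/Tb-streptavidin complex preincubated with compound 60 min at room temperature, then SOS plus GTP (3 mM final) added. Exchange times: G13D 30 min, G12C/D 60 min, G12V 90 min. Final RAS/SOS: G12C 3 nM/40 nM, G12D 1 nM/40 nM, G12V 1.25 nM/160 nM, G13D 1.25 nM/0 nM. TR-FRET 520/495 ratio, four-parameter fit.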

A further experiment concerns the target T2, KRAS-G12V (Homo sapiens, UniProt P01116, G12V).
T2 construct: N-terminal biotin-acceptor peptide […]
The experiment is described as above. Format: biochemical. The following applies: 60 min preincubation, SOS + GTP, read-out: KRAS G12V GNE IC50. Summed up: as §6

The next experiment deals with T3, KRAS-G13D (Homo sapiens, UniProt P01116, G13D).
T3 construct: N-terminal biotin-acceptor peptide […]
T3 sequence (P01116 with tags, fused parts or gaps isoform P01116-2 G13D): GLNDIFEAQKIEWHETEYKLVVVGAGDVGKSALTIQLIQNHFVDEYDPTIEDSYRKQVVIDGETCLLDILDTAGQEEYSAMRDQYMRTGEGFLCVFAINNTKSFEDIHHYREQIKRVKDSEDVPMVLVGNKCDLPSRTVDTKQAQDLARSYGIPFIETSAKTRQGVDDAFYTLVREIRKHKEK
The experiment is described as above. The experiment is classed as biochemical. Particulars: 60 min preincubation, GTP, read-out: KRAS G13D GNE IC50. The gist of the method: as §6

The target in experiment [2] is T4, KRAS-G12C (C51S/C80L/C118S) (Homo sapiens, UniProt P01116, C118S/C51S/C80L/G12C).
T4 construct: N-terminal biotin-acceptor peptide […]
T4 sequence (P01116 with tags, fused parts or gaps isoform P01116-2 G12C/C51S/C80L/C118S): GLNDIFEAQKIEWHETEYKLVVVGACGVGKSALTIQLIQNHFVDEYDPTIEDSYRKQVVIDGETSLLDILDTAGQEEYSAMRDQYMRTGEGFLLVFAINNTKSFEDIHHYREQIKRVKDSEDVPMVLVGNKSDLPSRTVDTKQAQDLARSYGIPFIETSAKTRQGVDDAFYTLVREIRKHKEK
Described as above. Format: biochemical. The following applies: 60 min preincubation, SOS + GTP, read-out: KRAS G12C GNE IC50. The gist of the method: as §6

Experiment [3] has as its system SW620 cells (homozygous KRAS-G12V activating mutation). Kind of experiment: Cellular phospho-ERK assay in G12V cell line. The experiment is classed as cell-based. Particulars: Homo sapiens, SW-620, 2 hours compound incubation, ratio of p-ERK vs. total ERK, read-out: SW620 pERK IC50. The procedure:
Procedure for Cellular Phospho-ERK Assay in G12D and G12V Cell Lines
PANC08.13 cells (ATCC® CRL-2551™), containing homozygous KRAS-G12D activating mutation, were cultured in growth medium made of RPMI1640-GlutaMAX™—I (ThermoFisher Scientific 61870) containing 15% heat inactivated fetal bovine serum (ThermoFisher Scientific 10091148)). SW620 cells (ATCC® […]), containing homozygous KRAS-G12V activating mutation, were cultured in growth medium that contains RPMI 1640-GlutaMAX™—I (ThermoFisher Scientific 61870) containing 10% heat inactivated fetal bovine serum (ThermoFisher Scientific 10091148).
Cells for the assay were harvested in growth medium after TrypLE (ThermoFisher scientific 12604021) digestion and were seeded in a 384-well collagen coated cell culture plate (Corning 356702) at a density of 10,000-15,000 cells/20 uL/well, and incubated at 37° C., 5% CO2 overnight. The compound (with 10 mM stock concentration) dose-response titrations were prepared [30 μM final ERK detection assay concentration and 1:3 dilutions, 10-point dose response] and appropriate amounts (270 nL) of test compounds were dispensed in a 384-well intermediate plate using an Echo 550 liquid handler. 30 uL/well of RPMI medium 1640-GlutaMAX™—I was added to the intermediate plate and the contents of the intermediate plate (10 uL/well) were then transferred to the 384-well collagen coated cell culture plate, which was incubated at 37° C., 5% CO2 for 2 hours. After removal of medium from the collagen coated cell culture plate, cells were lysed in lysis buffer from Alpha SureFire® Ultra™ Multiplex p-ERK and total ERK assay kit (PerkinElmer MPSU-PTERK) containing Halt™ Protease and Phosphatase inhibitor cocktail (ThermoFisher Scientific 78446) at room temperature with constant shaking at 300 rpm for 30 minutes. The cell lysates were then transferred to an OptiPlate-384 plate (PerkinElmer 6005620), and the phosphorylation of ERK (p-ERK) and total ERK levels were detected by Alpha SureFire® Ultra™ Multiplex p-EEK kit and total ERK assay kit (PerkinElmer MPSU-PTERK) following the manufacturer's protocol. Assay plates were read on a EnVision Multimode Plate Reader (PerkinElmer), and the ratio of p-ERK vs. total ERK in each well was used as the final readout. Dose response curves were analyzed using a 4-parameter logistic model to calculate IC50 values using Spotfire software.

NRAS, sequence (P01111 with tags, fused parts or gaps): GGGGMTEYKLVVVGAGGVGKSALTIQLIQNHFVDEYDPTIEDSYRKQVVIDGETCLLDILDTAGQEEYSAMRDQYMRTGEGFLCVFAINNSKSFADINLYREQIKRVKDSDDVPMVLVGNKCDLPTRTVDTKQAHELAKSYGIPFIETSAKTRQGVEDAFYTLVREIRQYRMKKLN
HRAS, sequence (P01112 with tags, fused parts or gaps): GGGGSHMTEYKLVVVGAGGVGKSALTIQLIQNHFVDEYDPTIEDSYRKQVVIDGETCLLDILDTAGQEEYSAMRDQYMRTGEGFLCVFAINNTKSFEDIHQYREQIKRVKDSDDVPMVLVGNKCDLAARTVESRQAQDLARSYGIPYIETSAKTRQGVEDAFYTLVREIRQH
T1 sequence (P01116 with tags, fused parts or gaps isoform P01116-2 G12D): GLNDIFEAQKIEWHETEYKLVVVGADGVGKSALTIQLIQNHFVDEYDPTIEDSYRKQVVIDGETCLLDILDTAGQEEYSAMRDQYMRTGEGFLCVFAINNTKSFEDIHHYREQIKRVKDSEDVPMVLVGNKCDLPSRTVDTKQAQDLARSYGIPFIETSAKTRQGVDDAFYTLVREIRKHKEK
T2 sequence (P01116 with tags, fused parts or gaps isoform P01116-2 G12V): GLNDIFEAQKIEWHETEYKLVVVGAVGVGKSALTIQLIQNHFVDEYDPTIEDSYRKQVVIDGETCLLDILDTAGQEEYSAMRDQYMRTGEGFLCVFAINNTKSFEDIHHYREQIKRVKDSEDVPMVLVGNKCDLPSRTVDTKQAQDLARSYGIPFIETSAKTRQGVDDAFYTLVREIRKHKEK

What is called IC50 is the concentration that inhibits the measured activity by half. For the compound `C[C@H]1CCOCCN1c1nc(OC[C@@]23CCCN2C[C@H](F)C3)nc2c(F)c(-c3ccc(F)c4sc(N)c(C#N)c34)c(Cl)cc12` (single isomer, unassigned) [Ex. 19], the IC50 in experiment [1] amounted to 34.2 nM; at HRAS, 2070 nM; on NRAS, 4310 nM; at KRAS-G12D, 2.4 nM; at KRAS-G12V, 2.32 nM; on KRAS-G13D, 2.37 nM. The IC50 in experiment [2] turned out to be 6.07 nM; in experiment [3], 15 nM.
On to `N#Cc1c(N)sc2c(F)ccc(-c3c(Cl)cc4c(N5CCCCCC5)nc(OC[C@@]56CCCN5C[C@H](F)C6)nc4c3F)c12` [Ex. 1, 2-amino-4-(4-(azepan-1-yl)-6-chloro-8-fluoro-2-(((2R,7aS)-2-fluorotetrahydro-1H-pyrrolizin-7a(5H)-yl)methoxy)quinazolin-7-yl)-7-fluorobenzo[b]thiophene-3-carbonitrile], for which the IC50 in experiment [1] was 68.8 nM; at HRAS it was greater than 11100 nM; on NRAS it was greater than 11100 nM; in experiment [3] it was 74.5 nM.
On to `C[C@@H]1CCCCCN1c1nc(OC[C@@]23CCCN2C[C@H](F)C3)nc2c(F)c(-c3ccc(F)c4sc(N)c(C#N)c34)c(Cl)cc12` [Ex. 2, 2-amino-4-(6-chloro-8-fluoro-2-(((2R,7aS)-2-fluorotetrahydro-1H-pyrrolizin-7a(5H)-yl)methoxy)-4-((R)-2-methylazepan-1-yl)quinazolin-7-yl)-7-fluorobenzo[b]thio-phene-3-carbonitrile], for which the IC50 worked out at 372 nM in experiment [1], 8.61 nM at KRAS-G12D, 13.2 nM on KRAS-G12V and 408 nM in experiment [3].
`C[C@H]1CCCCCN1c1nc(OC[C@@]23CCCN2C[C@H](F)C3)nc2c(F)c(-c3ccc(F)c4sc(N)c(C#N)c34)c(Cl)cc12` [Ex. 3, 2-amino-4-(6-chloro-8-fluoro-2-(((2R,7aS)-2-fluorotetrahydro-1H-pyrrolizin-7a(5H)-yl)methoxy)-4-((S)-2-methylazepan-1-yl)quinazolin-7-yl)-7-fluorobenzo[b]thio-phene-3-carbonitrile]: the 50% inhibitory concentration (IC50) in experiment [1] was 776 nM; on HRAS it was greater than 11100 nM; at NRAS, greater than 11100 nM; on KRAS-G12D it was 113 nM; at KRAS-G12V, 40.3 nM; at KRAS-G13D, 54.6 nM. Besides, the results for the IC50 in experiment [2] and in experiment [3] were 30.9 nM and 806 nM, respectively.
In the case of `N#Cc1c(N)sc2c(F)ccc(-c3c(Cl)cc4c(N5CCCOCC5)nc(OC[C@@]56CCCN5C[C@H](F)C6)nc4c3F)c12` [Ex. 4, 2-amino-4-(6-chloro-8-fluoro-2-(((2R,7aS)-2-fluorotetrahydro-1H-pyrrolizin-7a(5H)-yl)methoxy)-4-(1,4-oxazepan-4-yl)quinazolin-7-yl)-7-fluorobenzo[b]thio-phene-3-carbonitrile], the IC50 in experiment [1] is 56.2 nM; on HRAS, greater than 11100 nM; at NRAS, greater than 11100 nM; at KRAS-G12D it was 7.62 nM; at KRAS-G12V, 3.33 nM; at KRAS-G13D, 7.62 nM. The results for the IC50 in experiment [2] and in experiment [3] were 15.5 nM and 48.6 nM, respectively.
Turning to `C[C@H]1CCOCCN1c1nc(OC[C@@]23CCCN2C[C@H](F)C3)nc2c(F)c(-c3ccc(F)c4sc(N)c(C#N)c34)c(Cl)cc12` [Ex. 6, 2-amino-4-(6-chloro-8-fluoro-2-(((2R,7aS)-2-fluorotetrahydro-1H-pyrrolizin-7a(5H)-yl)methoxy)-4-((S)-5-methyl-1,4-oxazepan-4-yl)quinazolin-7-yl)-7-fluorobenzo[b]thio-phene-3-carbonitrile], the IC50 was determined as 33.9 nM in experiment [1]; 2190 nM on HRAS; 9490 nM on NRAS; 3.78 nM on KRAS-G12D; 3.15 nM on KRAS-G12V; 2.4 nM at KRAS-G13D. For the same compound, the half-inhibitory concentration (IC50) came out at 9.16 nM in experiment [2] and 18.8 nM in experiment [3].
As to `CCNC[C@@]1(COc2nc(N3CCCOCC3)c3cc(Cl)c(-c4ccc(F)c5sc(N)c(C#N)c45)c(F)c3n2)CC1(F)F` [compound 30, 2-amino-4-(6-chloro-2-(((R)-1-((ethylamino)methyl)-2,2-difluorocyclopropyl)methoxy)-8-fluoro-4-(1,4-oxazepan-4-yl)quinazolin-7-yl)-7-fluorobenzo[b]thiophene-3-carbonitrile], the IC50 stood at 849 nM in experiment [1], 206 nM at KRAS-G12D, 33 nM at KRAS-G12V and 305 nM in experiment [3].
